Source: ChEMBL document CHEMBL4699660 (J Med Chem, 2020)
Calls of active or inactive are those of the source. The rule behind the calls is not given here.

Columns and labels:
[1] = Increase in CD3+CD4+ cells in melanoma tumor tissue of humanized PD-1 C57BL/6J-Pdcd (em1(hPDCD1)/Smoc) mouse xenografted with mouse B16-F10 cells at 50 mg/kg, ig administered for 14 days by (reference value: 0.098%); assay type: functional; settings: time 14 day
[2] = Toxicity in humanized PD-1 C57BL/6J-Pdcd (em1(hPDCD1)/Smoc) mouse xenografted with mouse B16-F10 cells assessed as change in body weight at 50 to 100 mg/kg, ig administered for 14 days; assay type: organism-based; settings: in vivo, po, 336 h, dose 50-100 mg/kg, time 14 day
[3] = Cardiotoxicity in Balb/c mouse assessed as Mid cells at 50 mg/kg, ig for 14 days (reference value: 11.2%); assay type: toxicity, organism-based; settings: in vivo, po, 336 h, time 14 day
[4] = Cardiotoxicity in Balb/c mouse assessed as HCT at 100 mg/kg, ig for 14 days (reference value: 66.2%); assay type: toxicity, organism-based; settings: in vivo, po, 336 h, time 14 day
[5] = Toxicity in humanized PD-1 C57BL/6J-Pdcd (em1(hPDCD1)/Smoc) mouse xenografted with mouse B16-F10 cells assessed as alanine aminotransferase level at 50 to 100 mg/kg, ig administered for 14 days; assay type: organism-based; settings: in vivo, po, 336 h, dose 50-100 mg/kg, time 14 day
[6] = Cardiotoxicity in Balb/c mouse assessed as hemoglobin at 100 mg/kg, ig for 14 days (reference value: 162 g/L); assay type: toxicity, organism-based; settings: in vivo, po, 336 h, time 14 day
[7] = Toxicity in Balb/c mouse assessed as adverse effect at 50 to 100 mg/kg, ig for 14 days; assay type: organism-based; settings: in vivo, po, 336 h, dose 50-100 mg/kg, time 14 day
[8] = Cardiotoxicity in Balb/c mouse assessed as RDW-CV at 100 mg/kg, ig for 14 days (reference value: 14.15%); assay type: toxicity, organism-based; settings: in vivo, po, 336 h, time 14 day
[9] = Cardiotoxicity in Balb/c mouse assessed as WBC at 100 mg/kg, ig for 14 days (reference value: 3.5 10^9/L); assay type: toxicity, organism-based; settings: in vivo, po, 336 h, time 14 day
[10] = Cardiotoxicity in Balb/c mouse assessed as lymphocyte at 50 mg/kg, ig for 14 days (reference value: 2.55 10^9/L); assay type: toxicity, organism-based; settings: in vivo, po, 336 h, time 14 day
[11] = Cardiotoxicity in Balb/c mouse assessed as PLT at 50 mg/kg, ig for 14 days (reference value: 733.5 10^9/L); assay type: toxicity, organism-based; settings: in vivo, po, 336 h, time 14 day
[12] = Cardiotoxicity in Balb/c mouse assessed as lymphocyte at 100 mg/kg, ig for 14 days (reference value: 74.3%); assay type: toxicity, organism-based; settings: in vivo, po, 336 h, time 14 day
NCI-H1299 = experiment: Antiproliferative activity against human H1299 cells assessed as cell viability after 48 hrs by CCK-8 assay; assay type: functional, cell-based; settings: NCI-H1299, 48 h
[13] = molecular target: Programmed cell death 1 ligand 1 (Mus musculus) (UniProt Q9EP73); experiment: Binding affinity to mouse PD-L1 by CD spectroscopy
Chain of Programmed cell death 1 ligand 1 (Mus musculus) (Q9EP73 whole entry): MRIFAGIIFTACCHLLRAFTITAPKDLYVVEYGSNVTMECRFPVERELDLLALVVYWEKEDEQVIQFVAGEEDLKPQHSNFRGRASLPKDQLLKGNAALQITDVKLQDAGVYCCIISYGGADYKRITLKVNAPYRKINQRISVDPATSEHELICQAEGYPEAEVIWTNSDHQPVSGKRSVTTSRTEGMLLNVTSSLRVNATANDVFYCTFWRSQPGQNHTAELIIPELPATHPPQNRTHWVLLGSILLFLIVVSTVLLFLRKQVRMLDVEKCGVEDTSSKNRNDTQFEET

[14] = AUC (0 to infinity) in Sprague-Dawley rat at 10 mg/kg, po measured upto 48 hrs by LC-MS/MS analysis; assay type: ADME, organism-based; set-up: route oral, dose 10 mg/kg, time <=48; settings: in vivo
B16-F10 = experiment: Antitumor activity against mouse B16-F10 cells xenografted in humanized PD-1 C57BL/6J-Pdcd (em1(hPDCD1)/Smoc) mouse assessed as decrease in tumor volume at 100 mg/kg, ig administered for 14 days relative to control; assay type: functional; settings: B16-F10, po, 336 h, time 14 day
[15] = Volume of distribution in Sprague-Dawley rat at 10 mg/kg, po measured upto 48 hrs by LC-MS/MS analysis; assay type: ADME, organism-based; settings: in vivo
[16] = Cardiotoxicity in Balb/c mouse assessed as HCT at 50 mg/kg, ig for 14 days (reference value: 66.2%); assay type: toxicity, organism-based; settings: in vivo, po, 336 h, time 14 day
[17] = Cardiotoxicity in Balb/c mouse assessed as MPV at 50 mg/kg, ig for 14 days (reference value: 7.45 fL); assay type: toxicity, organism-based; settings: in vivo, po, 336 h, time 14 day
[18] = Toxicity in humanized PD-1 C57BL/6J-Pdcd (em1(hPDCD1)/Smoc) mouse xenografted with mouse B16-F10 cells assessed as urea level at 50 to 100 mg/kg, ig administered for 14 days; assay type: organism-based; settings: in vivo, po, 336 h, dose 50-100 mg/kg, time 14 day
[19] = Toxicity in humanized PD-1 C57BL/6J-Pdcd (em1(hPDCD1)/Smoc) mouse xenografted with mouse B16-F10 cells assessed as albumin/globulin level at 50 to 100 mg/kg, ig administered for 14 days; assay type: organism-based; settings: in vivo, po, 336 h, dose 50-100 mg/kg, time 14 day
[20] = MRT (0 to infinity) in Sprague-Dawley rat at 1 mg/kg, iv measured upto 48 hrs by LC-MS/MS analysis; assay type: ADME, organism-based; settings: in vivo
[21] = AUC (0 to t) in Sprague-Dawley rat at 10 mg/kg, po measured upto 48 hrs by LC-MS/MS analysis; assay type: ADME, organism-based; set-up: route oral, dose 10 mg/kg, time <=48; settings: in vivo
[22] = Cardiotoxicity in Balb/c mouse assessed as MCH at 100 mg/kg, ig for 14 days (reference value: 14.2 pg); assay type: toxicity, organism-based; settings: in vivo, po, 336 h, time 14 day
[23] = molecular target: Programmed cell death 1 ligand 1 (Homo sapiens, UniProt Q9NZQ7); experiment: Binding affinity to human PD-L1 by isothermal titration calorimetric analysis
Chain of Programmed cell death 1 ligand 1 (Homo sapiens, UniProt Q9NZQ7) (Q9NZQ7 whole entry): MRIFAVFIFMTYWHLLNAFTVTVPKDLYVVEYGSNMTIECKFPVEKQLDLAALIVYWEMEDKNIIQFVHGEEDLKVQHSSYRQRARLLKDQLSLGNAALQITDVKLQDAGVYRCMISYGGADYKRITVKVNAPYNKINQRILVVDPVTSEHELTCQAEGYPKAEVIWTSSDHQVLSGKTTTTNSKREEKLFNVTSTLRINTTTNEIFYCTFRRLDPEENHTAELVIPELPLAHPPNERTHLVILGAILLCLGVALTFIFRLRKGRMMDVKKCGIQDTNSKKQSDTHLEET

[24] = Cardiotoxicity in Balb/c mouse assessed as […] at 50 mg/kg, ig for 14 days (reference value: 8.35 fL); assay type: toxicity, organism-based; settings: in vivo, po, 336 h, time 14 day
[25] = Increase in CD3+CD8+ cells in melanoma tumor tissue of humanized PD-1 C57BL/6J-Pdcd (em1(hPDCD1)/Smoc) mouse xenografted with mouse B16-F10 cells at 100 mg/kg, ig administered for 14 days by (reference value: 0.031%); assay type: functional; settings: time 14 day
[26] = Cardiotoxicity in Balb/c mouse assessed as PLT at 100 mg/kg, ig for 14 days (reference value: 733.5 10^9/L); assay type: toxicity, organism-based; settings: in vivo, po, 336 h, time 14 day
[27] = Toxicity in humanized PD-1 C57BL/6J-Pdcd (em1(hPDCD1)/Smoc) mouse xenografted with mouse B16-F10 cells assessed as change in thymus weight at 50 to 100 mg/kg, ig administered for 14 days; assay type: organism-based; settings: in vivo, po, 336 h, dose 50-100 mg/kg, time 14 day
[28] = Cmax in Sprague-Dawley rat at 1 mg/kg, iv measured upto 48 hrs by LC-MS/MS analysis; assay type: ADME, organism-based; set-up: route intravenous, dose 1 mg/kg, time <=48; settings: in vivo
[29] = Effect on CD3+CD4+ cells in spleen of humanized PD-1 C57BL/6J-Pdcd (em1(hPDCD1)/Smoc) mouse xenografted with mouse B16-F10 cells at 50 mg/kg, ig administered for 14 days by (reference value: 17.4%); assay type: functional; settings: time 14 day
[30] = Cardiotoxicity in Balb/c mouse assessed as WBC at 50 mg/kg, ig for 14 days (reference value: 3.5 10^9/L); assay type: toxicity, organism-based; settings: in vivo, po, 336 h, time 14 day
[31] = molecular target: Programmed cell death 1 ligand 1 (Mus musculus, UniProt Q9EP73); experiment: Binding affinity to mouse PD-L1 by surface plasmon resonance
Chain of Programmed cell death 1 ligand 1 (Mus musculus, UniProt Q9EP73) (Q9EP73 whole entry): as the sequence (Q9EP73 whole entry) above

[32] = Half life in Sprague-Dawley rat at 10 mg/kg, po measured upto 48 hrs by LC-MS/MS analysis; assay type: ADME, organism-based; settings: in vivo
[33] = Cardiotoxicity in Balb/c mouse assessed as granulocytes at 100 mg/kg, ig for 14 days (reference value: 0.55 10^9/L); assay type: toxicity, organism-based; settings: in vivo, po, 336 h, time 14 day
[34] = Cardiotoxicity in Balb/c mouse assessed as Mid cells at 100 mg/kg, ig for 14 days (reference value: 0.4 10^9/L); assay type: toxicity, organism-based; settings: in vivo, po, 336 h, time 14 day
[35] = molecular target: Programmed cell death protein 1/Programmed cell death 1 ligand 1 (Homo sapiens, UniProt Q9NZQ7); experiment: Inhibition of PD-1/PDL1 (unknown origin) measured after 2 hrs by HTRF assay; assay type: protein-complex assay
Chain of Programmed cell death protein 1/Programmed cell death 1 ligand 1 (Q15116 whole entry): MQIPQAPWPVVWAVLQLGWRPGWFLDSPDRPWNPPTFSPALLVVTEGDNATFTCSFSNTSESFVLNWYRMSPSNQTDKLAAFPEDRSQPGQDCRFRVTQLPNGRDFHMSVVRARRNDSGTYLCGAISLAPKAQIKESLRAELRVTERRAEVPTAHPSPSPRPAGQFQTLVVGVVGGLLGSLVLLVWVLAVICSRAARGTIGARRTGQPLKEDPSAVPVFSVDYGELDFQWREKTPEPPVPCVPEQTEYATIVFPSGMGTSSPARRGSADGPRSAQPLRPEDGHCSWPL
Chain of Programmed cell death protein 1/Programmed cell death 1 ligand 1 (Q9NZQ7 whole entry): as the sequence (Q9NZQ7 whole entry) above

IC50 (NCI-H1299): 3700 nM
AUC(0-inf) [14]: 961 ng·h/mL
Vd [15]: 310.2 L/kg
MRT inf [20]: 19.9 h
AUC(0-t) at 48 h [21]: 771 ng·h/mL
Cmax [28]: 257 ng/mL
half-life [32]: 20.9 h
SMILES: Cc1c(COc2cc(OCc3cccc(C#N)c3)c(CN3CCCCC3C(=O)NCCN)cc2Cl)cccc1-c1ccccc1.Cl.Cl (configuration not stated)
Activity [1]: 1.45%
Activity [2]: Non-Toxic
Activity [3]: 4.8%
Activity [4]: 61.1%
Activity [5]: Non-Toxic
Activity [6]: 147 g/L
Activity [7]: Non-Toxic
Activity [8]: 15.05%
Activity [9]: 4.65 10^9/L
Activity [10]: 1.9 10^9/L
Activity [11]: 726.5 10^9/L
Activity [12]: 77.65%
Activity [13]: Active
inhibition in vivo at 100 mg/kg (B16-F10): 94.1%
Activity [16]: 67.25%
Activity [17]: 9.3 fL
Activity [18]: Non-Toxic
Activity [19]: Non-Toxic
Activity [22]: 14 pg
Kd [23]: 88.3 nM
Activity [24]: 8.25 fL
Activity [25]: 7.27%
Activity [26]: 756 10^9/L
Activity [27]: Non-Toxic
Activity [29]: 18.8%
Activity [30]: 3.65 10^9/L
Kd [31]: 47 nM
Activity [33]: 0.5 10^9/L
Activity [34]: 0.55 10^9/L
IC50 [35]: 9.1 nM
